Assay results published in ChEMBL document CHEMBL4610123, “Structure-Based Drug Discovery of N-((R)-3-(7-Methyl-1H-indazol-5-yl)-1-oxo-1-(((S)-1-oxo-3-(piperidin-4-yl)-1-(4-(pyridin-4-yl)piperazin-1-yl)propan-2-yl)amino)propan-2-yl)-2'-oxo-1',2'-dihydrospiro[piperidine-4,4'-pyrido[2,3-d][1,3]oxazine]-1-carboxamide (HTL22562): A Calcitonin Gene-Related …” (J Med Chem, 2020).
Values after ≈ are worked out from the molar mass of the structure shown.

Experiments:
Cytochrome P450 2C9 = Cytochrome P450 2C9 (Homo sapiens, UniProt P11712); assay: Inhibition of CYP2C9 (unknown origin); format: ADME
Chain of Cytochrome P450 2C9 (P11712 whole entry): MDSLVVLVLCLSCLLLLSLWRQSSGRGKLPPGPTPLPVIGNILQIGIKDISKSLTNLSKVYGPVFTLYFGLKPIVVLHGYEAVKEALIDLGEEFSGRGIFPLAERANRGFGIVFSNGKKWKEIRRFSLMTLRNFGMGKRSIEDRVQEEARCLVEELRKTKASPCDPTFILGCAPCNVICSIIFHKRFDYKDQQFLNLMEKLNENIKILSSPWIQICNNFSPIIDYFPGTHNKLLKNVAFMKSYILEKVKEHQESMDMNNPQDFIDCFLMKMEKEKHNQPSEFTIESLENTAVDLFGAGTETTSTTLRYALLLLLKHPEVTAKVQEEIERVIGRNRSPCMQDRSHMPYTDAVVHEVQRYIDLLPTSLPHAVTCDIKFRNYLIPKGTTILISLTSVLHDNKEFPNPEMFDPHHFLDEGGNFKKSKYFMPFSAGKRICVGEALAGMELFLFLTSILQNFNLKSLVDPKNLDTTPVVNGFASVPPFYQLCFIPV

[1] = Half life in dog at 0.5 mg/kg, iv; format: ADME, organism-based, Canis lupus familiaris; conditions: in vivo
Cytochrome P450 2C8 = target: T1, Cytochrome P450 2C8 (Homo sapiens, UniProt P10632); assay: Inhibition of CYP2C8 (unknown origin); format: ADME
T1 sequence (P10632 whole entry): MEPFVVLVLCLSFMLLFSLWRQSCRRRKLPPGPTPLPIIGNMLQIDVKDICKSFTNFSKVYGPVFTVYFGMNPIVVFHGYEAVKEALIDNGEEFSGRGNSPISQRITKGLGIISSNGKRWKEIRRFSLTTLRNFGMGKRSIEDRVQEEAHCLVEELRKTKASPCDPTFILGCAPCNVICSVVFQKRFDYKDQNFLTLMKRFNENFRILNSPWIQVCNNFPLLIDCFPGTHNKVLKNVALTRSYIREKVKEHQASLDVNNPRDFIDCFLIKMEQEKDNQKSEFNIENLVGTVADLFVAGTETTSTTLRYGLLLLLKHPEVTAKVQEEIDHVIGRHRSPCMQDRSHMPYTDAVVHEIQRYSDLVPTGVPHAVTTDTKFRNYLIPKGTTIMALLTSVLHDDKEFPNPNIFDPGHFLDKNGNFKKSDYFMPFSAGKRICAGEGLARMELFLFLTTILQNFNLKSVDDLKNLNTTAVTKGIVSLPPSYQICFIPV

[2] = Efflux ratio of apparent permeability in MDCK cells; format: ADME, cell-based, Canis lupus familiaris; conditions: dog
[3] = Lipophilicity, log D of the compound at pH 7.4; format: physicochemical; conditions: buffer
[4] = Genotoxicity in Salmonella typhimurium TA98 by mini AMES test; format: toxicity; conditions: salmonella enterica subsp. enterica serovar typhimurium
[5] = Half life in dog hepatocytes; format: ADME, cell-based, Canis lupus familiaris, Hepatocyte
[6] = Half life in cynomolgus monkey at 0.013 mg/kg, sc; format: ADME, organism-based, Macaca fascicularis; conditions: in vivo
[7] = Volume of distribution at steady state in dog at 0.5 mg/kg, iv; format: ADME, organism-based, Canis lupus familiaris; conditions: in vivo, read-out: Vdss
[8] = AUC (infinity) in cynomolgus monkey at 0.013 mg/kg, sc; format: ADME, organism-based, Macaca fascicularis; design: dose 0.013 mg/kg, route subcutaneous, time infinity; conditions: in vivo
[9] = Volume of distribution at steady state in rat at 2 mg/kg, iv; format: ADME, organism-based; conditions: in vivo, read-out: Vdss
[10] = Thermodynamic solubility of the compound at pH 6; format: physicochemical; conditions: buffer, read-out: Therm_solubility
PXR (NR1I2) = target: T2, PXR (NR1I2) (Homo sapiens, UniProt O75469); assay: Transactivation of PXR (unknown origin) assessed as induction of CYP450 at 3 uM relative to control; format: ADME; conditions: read-out: FC
T2 sequence (O75469 whole entry): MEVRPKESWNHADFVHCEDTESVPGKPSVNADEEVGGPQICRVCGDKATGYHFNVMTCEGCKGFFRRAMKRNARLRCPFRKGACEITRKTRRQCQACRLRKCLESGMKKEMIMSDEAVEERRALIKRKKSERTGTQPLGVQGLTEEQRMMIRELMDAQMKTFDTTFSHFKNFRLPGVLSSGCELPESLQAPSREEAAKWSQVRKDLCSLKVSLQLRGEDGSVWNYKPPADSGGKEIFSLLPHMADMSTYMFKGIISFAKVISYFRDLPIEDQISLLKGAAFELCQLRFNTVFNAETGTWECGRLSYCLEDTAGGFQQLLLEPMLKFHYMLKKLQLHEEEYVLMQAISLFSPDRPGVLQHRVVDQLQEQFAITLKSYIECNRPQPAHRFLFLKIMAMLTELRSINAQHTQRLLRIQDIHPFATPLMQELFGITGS

[11] = Half life in rat at 2 mg/kg, iv; format: ADME, organism-based; conditions: in vivo
[12] = Tmax in cynomolgus monkey at 0.013 mg/kg, sc; format: ADME, organism-based, Macaca fascicularis; conditions: in vivo
[13] = Half life in human hepatocytes; format: ADME, cell-based, Hepatocyte
[14] = Half life in cynomolgus monkey at 0.5 mg/kg, sc; format: ADME, organism-based, Macaca fascicularis; conditions: in vivo
[15] = Protein binding in dog plasma by high-throughput dialysis method; format: ADME, cell-free, Canis lupus familiaris; conditions: read-out: PPB (converted)
Canis lupus familiaris = species: Canis lupus familiaris; assay: Antagonist activity at dog CGRP receptor
[16] = Binding affinity to cynomolgus monkey CGRP receptor; design: species or system Macaca fascicularis
[17] = Clearance in dog at 0.5 mg/kg, iv; format: ADME, organism-based, Canis lupus familiaris; conditions: in vivo
Homo sapiens = species: Homo sapiens; assay: Selectivity ratio of antagonist activity at amylin-1 receptor (unknown origin) to antagonist activity at human CGRP receptor in human SK-N-MC cells; format: cell-based
[18] = Half life in rat hepatocytes; format: ADME, cell-based, Hepatocyte
[19] = Thermodynamic solubility of the compound at pH 7.4; format: physicochemical; conditions: buffer, read-out: Therm_solubility
[20] = Oral bioavailability in rat at 1 mg/kg; format: ADME, organism-based; conditions: in vivo
[21] = Oral bioavailability in cynomolgus monkey at 0.013 mg/kg; format: ADME, organism-based, Macaca fascicularis; conditions: in vivo
Cytochrome P450 2D6 = Cytochrome P450 2D6 (Homo sapiens, UniProt P10635); assay: Inhibition of CYP2D6 (unknown origin); format: ADME
Chain of Cytochrome P450 2D6 (P10635 whole entry): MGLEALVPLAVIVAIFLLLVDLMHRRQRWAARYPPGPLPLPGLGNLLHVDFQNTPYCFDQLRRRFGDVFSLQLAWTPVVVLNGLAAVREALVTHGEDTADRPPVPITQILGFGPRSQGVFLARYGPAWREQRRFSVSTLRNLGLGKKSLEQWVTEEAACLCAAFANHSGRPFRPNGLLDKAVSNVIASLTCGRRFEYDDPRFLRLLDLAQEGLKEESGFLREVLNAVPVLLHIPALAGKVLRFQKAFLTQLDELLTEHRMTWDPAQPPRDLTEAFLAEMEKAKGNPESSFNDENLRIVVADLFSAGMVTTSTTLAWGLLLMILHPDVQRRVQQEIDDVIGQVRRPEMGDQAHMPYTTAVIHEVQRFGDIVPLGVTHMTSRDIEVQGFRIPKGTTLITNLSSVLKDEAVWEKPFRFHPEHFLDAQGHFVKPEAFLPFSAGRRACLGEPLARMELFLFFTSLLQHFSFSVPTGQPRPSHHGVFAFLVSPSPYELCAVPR

[22] = Genotoxicity in Salmonella typhimurium TA100 by mini AMES test; format: toxicity; conditions: salmonella enterica subsp. enterica serovar typhimurium
[23] = target: T3, Muscarinic acetylcholine receptor M2 (Homo sapiens) (UniProt P08172); assay: Antagonist activity at CHRM2 (unknown origin) at 10 uM relative to control
T3 sequence (whole entry): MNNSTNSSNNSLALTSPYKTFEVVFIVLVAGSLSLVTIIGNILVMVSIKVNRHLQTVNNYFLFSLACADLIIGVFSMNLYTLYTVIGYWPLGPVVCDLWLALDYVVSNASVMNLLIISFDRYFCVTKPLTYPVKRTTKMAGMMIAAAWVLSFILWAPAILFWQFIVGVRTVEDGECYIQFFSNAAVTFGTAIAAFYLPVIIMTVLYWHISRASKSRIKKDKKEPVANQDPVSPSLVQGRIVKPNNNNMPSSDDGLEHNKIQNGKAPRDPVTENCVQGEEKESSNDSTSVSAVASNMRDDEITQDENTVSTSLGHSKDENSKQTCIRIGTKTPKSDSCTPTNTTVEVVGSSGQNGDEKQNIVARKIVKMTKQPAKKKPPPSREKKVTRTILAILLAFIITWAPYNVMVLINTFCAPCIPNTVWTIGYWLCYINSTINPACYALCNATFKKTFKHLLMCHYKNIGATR

For `Cc1cc(C[C@@H](NC(=O)N2CCC3(CC2)OC(=O)Nc2ncccc23)C(=O)N[C@@H](CC2CCNCC2)C(=O)N2CCN(c3ccncc3)CC2)cc2cn[nH]c12` [HTL-0022562], the IC50 (Cytochrome P450 2C9) was > 50.1 µM, the half-life [1] was 1.2 h and the IC50 (Cytochrome P450 2C8) was > 50.1 µM. For the same molecule, the efflux ratio [2] was > 2.7, the logD [3] was -0.4 and the Activity [4] was “Non-Toxic”. For the same molecule, the half-life [5] was > 5 h, the half-life [6] was 3.5 h and the Vd [7] was 0.3 L/kg. The AUC(0-inf) [8] was 81 ng·h/mL, the Vd [9] was 1 L/kg and the solubility thermodynamic [10] was 2920 µM (≈ 2230 µg/mL). It also gave a fold induction at 3 µM (PXR (NR1I2)) of 2.3, a half-life [11] of 4.7 h and a Tmax [12] of 0.8 h. The half-life [13] was > 5 h, the half-life [14] was 3.6 h and the fraction unbound [15] was 0.77. It also gave a pKb (Canis lupus familiaris) of 7.2, a pKi [16] of 11.3 and a clearance [17] of 10 mL/min/kg. For the same molecule, the Selectivity ratio (Homo sapiens) was > 8000, the half-life [18] was > 5 h and the solubility thermodynamic [19] was 2460 µM (≈ 1880 µg/mL). The bioavailability [20] was 123%, the bioavailability [21] was 68% and the IC50 (Cytochrome P450 2D6) was > 50.1 µM. For the same molecule, the Activity [22] was “Non-Toxic” and the inhibition [23] was 65%.
